The text below walks through data of patent US10130615B2, “Benzomorphan analogs and the use thereof” (priority 2014, dated 2018).

SMILES strings stand for the structures.

In experiment [1] the target is T1, μ-opioid receptor (Homo sapiens, UniProt P35372). Nature of the experiment: cell-based. Also noted: purchased Perkin Elmer, Shelton, Conn. The note with it: U2OS cells; for EC50: read-out: β-Arr2 μ EC50; for Emax: read-out: β-Arr2 μ Emax.
In experiment [2] the target is T1, μ-opioid receptor. The experiment can be described thus: biochemical. The arrangement: purchased Perkin Elmer, Shelton, Conn; host or cells: HEK-293 or CHO. The note with it: HEK-293 or CHO cells; for EC50: read-out: GTPγS μ EC50; for Emax: relative to DAMGO, read-out: GTPγS μ Emax.
Experiment [3] has as its target T1, μ-opioid receptor. Nature of the experiment: μ-opioid receptor GTPγS functional assay, U2OS cells. The note with it: for Emax: read-out: GTPγS μ Emax.
In another experiment the target is κ-opioid receptor (Homo sapiens, UniProt P41145). Nature of the experiment: κ-opioid receptor GTPγS functional assay, U2OS cells. Type of experiment: biochemical. Also noted: expressed in transfected cells; host or cells: U-2 OS. The note with it: U2OS cells; for EC50: read-out: GTPγS κ EC50. On the procedure: Plates were incubated for 30 min at a temperature of about 25° C. with shaking.
κ-opioid receptor, sequence (P41145 whole entry): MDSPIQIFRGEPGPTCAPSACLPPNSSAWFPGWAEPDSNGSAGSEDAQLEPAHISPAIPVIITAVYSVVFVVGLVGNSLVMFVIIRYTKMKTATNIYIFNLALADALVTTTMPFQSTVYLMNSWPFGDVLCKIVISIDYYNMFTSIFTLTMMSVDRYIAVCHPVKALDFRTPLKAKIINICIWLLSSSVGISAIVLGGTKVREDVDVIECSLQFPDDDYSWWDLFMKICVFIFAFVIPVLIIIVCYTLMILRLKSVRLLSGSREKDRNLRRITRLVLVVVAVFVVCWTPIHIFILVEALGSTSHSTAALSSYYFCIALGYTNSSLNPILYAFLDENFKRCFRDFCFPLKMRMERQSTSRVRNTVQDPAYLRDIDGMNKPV

T1 sequence (P35372 whole entry, species assumed): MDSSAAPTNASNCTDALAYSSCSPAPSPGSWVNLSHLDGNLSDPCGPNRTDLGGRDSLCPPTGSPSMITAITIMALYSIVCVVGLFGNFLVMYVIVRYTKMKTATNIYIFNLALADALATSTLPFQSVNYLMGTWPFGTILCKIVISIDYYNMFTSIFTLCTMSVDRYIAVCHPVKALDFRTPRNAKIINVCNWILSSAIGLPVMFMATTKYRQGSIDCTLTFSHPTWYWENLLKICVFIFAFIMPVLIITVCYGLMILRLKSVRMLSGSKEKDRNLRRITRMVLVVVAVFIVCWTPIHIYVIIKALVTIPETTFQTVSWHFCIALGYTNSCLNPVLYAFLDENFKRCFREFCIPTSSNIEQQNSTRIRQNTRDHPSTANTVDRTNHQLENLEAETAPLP

Take `C[C@H]1[C@H]2Cc3ccc(O)cc3[C@]1(CCNC(=O)Nc1ccccc1F)CCN2C` [Compound 78, 1-(2-fluorophenyl)-3-(2-((2R,6R,11R)-8-hydroxy-3,11-dimethyl-2,3,4,5-tetrahydro-2,6-methanobenzo[d]azocin-6(1H)-yl)ethyl)urea]: on μ-opioid receptor [1], the EC50 worked out at 90.5 ± 15.4 nM and the maximum response (Emax) was found to be 67 ± 3.71%. In addition, on μ-opioid receptor [2], the EC50 was 33.5 ± 4.9 nM and the Emax came out at 71 ± 3.61%.
On to `C[C@H]1[C@H]2Cc3ccc(O)cc3[C@]1(CCN1CCC(N(C3CC3)S(=O)(=O)c3ccccc3)CC1)CCN2C` [Compound 7, N-cyclopropyl-N-(1-(2-((2R,6R,11R)-8-hydroxy-3,11-dimethyl-2,3,4,5-tetrahydro-2,6-methanobenzo[d]azocin-6(1H)-yl)ethyl)piperidin-4-yl)benzene-sulfonamide], for which the EC50 came out at 503 ± 116 nM on μ-opioid receptor [1], 83.1 ± 1.96 nM on μ-opioid receptor [3] and 624 ± 65.9 nM at μ-opioid receptor [2]. The figures for the Emax at μ-opioid receptor [1], at μ-opioid receptor [3] and on μ-opioid receptor [2] were 23.4 ± 1.33%, 99 ± 1% and 54.5 ± 4.33%, respectively.
Regarding `C[C@H]1[C@H]2Cc3ccc(O)cc3C1(CCNS(=O)(=O)N(C)C)CCN2C` [Compound 80], at μ-opioid receptor [1], the EC50 came to 1180 ± 822 nM and the Emax is 2.62 ± 0.36%. For the same compound, on μ-opioid receptor [2], the EC50 came out at 134 ± 3.21 nM and the Emax stood at 27.9 ± 0.47%.
In the same order, the values of `C[C@H]1[C@H]2Cc3ccc(O)cc3[C@]1(CCNS(=O)(=O)c1ccc(F)cc1)CCN2C` [Compound 69, 4-fluoro-N-(2-((2R,6S,11R)-8-hydroxy-3,11-dimethyl-2,3,4,5-tetrahydro-2,6-methanobenzo[d]azocin-6(1H)-yl)ethyl)-benzenesulfonamide] are 2.97 ± 0.34 nM, 14.7 ± 0.88%, 5.42 ± 1.11 nM and 59.3 ± 1.2%.
The like results for `C[C@H]1[C@H]2Cc3ccc(O)cc3[C@]1(CCNC(=O)Nc1ccccc1)CCN2C` [Compound 68, 1-(2-((2R,6R,11R)-8-hydroxy-3,11-dimethyl-2,3,4,5-tetrahydro-2,6-methano-benzo[d]azocin-6(1H)-yl)ethyl)-3-phenylurea] were, in that order, 18.9 ± 1.23 nM, 72.3 ± 0.88%, 28.5 ± 2.07 nM and 75.8 ± 2.39%.
The like results for `C[C@H]1[C@H]2Cc3ccc(O)cc3[C@]1(CCNC(=O)c1ccc(C(N)=O)cc1)CCN2C` [Compound 86, N-(2-((2R,6R,11R)-8-hydroxy-3,11-dimethyl-2,3,4,5-tetrahydro-2,6-methanobenzo[d]azocin-6(1H)-yl)ethyl)terephthalamide] were, in that order, 289 ± 91.8 nM, 11.2 ± 0.69%, 252 ± 23.5 nM and 48.2 ± 1.26%.
As to `C[C@H]1[C@H]2Cc3ccc(O)cc3[C@]1(CCNC(=O)c1ccc(F)cc1)CCN2C` [Compound 83, 4-Fluoro-N-(2-((2R,6R,11R)-8-hydroxy-3,11-dimethyl-2,3,4,5-tetrahydro-2,6-methanobenzo[d]azocin-6(1H)-yl)ethyl)benzamide], at μ-opioid receptor [1], the EC50 was found to be 13.8 ± 3.03 nM and the Emax worked out at 46.5 ± 1.93%. In addition, on μ-opioid receptor [2], the EC50 was 13.6 ± 3.38 nM and the Emax amounted to 77.2 ± 3.52%.
In the same order, the values of `C[C@H]1[C@H]2Cc3ccc(O)cc3[C@]1(CCNC(=O)Nc1ccc(F)cc1)CCN2C` [Compound 76, 1-(4-fluorophenyl)-3-(2-((2R,6R,11R)-8-hydroxy-3,11-dimethyl-2,3,4,5-tetrahydro-2,6-methanobenzo[d]azocin-6(1H)-yl)ethyl)urea] are 28.4 ± 3.98 nM, 28.9 ± 1.69%, 28.8 ± 10.5 nM and 58.5 ± 2.78%.
In the same order, the values of `C[C@H]1[C@H]2Cc3ccc(O)cc3[C@]1(CCNC(=O)CCc1ccccc1)CCN2C` [Compound 85, N-(2-((2R,6R,11R)-8-hydroxy-3,11-dimethyl-2,3,4,5-tetrahydro-2,6-methanobenzo[d]azocin-6(1H)-yl)ethyl)-3-phenylpropanamide] are 6.55 ± 2.88 nM, 39.8 ± 0.77%, 6.51 ± 0.17 nM and 69.5 ± 2.23%.
For the compound `C[C@H]1[C@H]2Cc3ccc(O)cc3[C@]1(CCNC(=O)[C@@H]1CCC(=O)N1)CCN2C` [Compound 72, (S)-N-(2-((2R,6R,11R)-8-hydroxy-3,11-dimethyl-2,3,4,5-tetrahydro-2,6-methano-benzo[d]azocin-6(1H)-yl)ethyl)-5-oxopyrrolidine-2-carboxamide], at μ-opioid receptor [1], the EC50 came out at 267 ± 63.3 nM and the Emax is 5.8 ± 0.42%. At μ-opioid receptor [2], the EC50 was found to be 241 ± 56.7 nM and the Emax was found to be 37.2 ± 1.8%.
Take `C[C@H]1[C@H]2Cc3ccc(O)cc3[C@]1(CCNC(=O)Nc1cccc(F)c1)CCN2C` [Compound 79, 1-(3-fluorophenyl)-3-(2-((2R,6R,11R)-8-hydroxy-3,11-dimethyl-2,3,4,5-tetrahydro-2,6-methanobenzo[d]azocin-6(1H)-yl)ethyl)urea]: at μ-opioid receptor [1], the EC50 amounted to 39.1 ± 7.13 nM and the Emax is 58.9 ± 7.55%. At μ-opioid receptor [2], the 50% effective concentration (EC50) was 19.7 ± 1.11 nM and the Emax amounted to 71.6 ± 5.96%.
In the case of `C[C@H]1[C@H]2Cc3ccc(O)cc3[C@]1(CCNC(=O)NS(=O)(=O)c1ccc(F)cc1)CCN2C` [Compound 66, 4-fluoro-N-((2-((2R,6R,11R)-8-hydroxy-3,11-dimethyl-2,3,4,5-tetrahydro-2,6-methanobenzo[d]azocin-6(1H)-yl)-ethyl)carbamoyl)benzenesul-fonamide], at μ-opioid receptor [1], the EC50 came to 2290 ± 703 nM and the Emax was 15.9 ± 0.72%. Also, at μ-opioid receptor [2], the EC50 was determined as 174 ± 13.1 nM and the Emax was 37.3 ± 0.88%.
The like results for `C[C@H]1[C@H]2Cc3ccc(O)cc3[C@]1(CCNC(=O)NCc1ccccc1)CCN2CC1CC1` [Compound 21, 1-benzyl-3-(2-((2R,6R,11R)-3-(cyclopropylmethyl)-8-hydroxy-11-methyl-2,3,4,5-tetrahydro-2,6-methanobenzo[d]azocin-6(1H)-yl)ethyl)urea] were, in that order, 0.38 ± 0.11 nM, 30.1 ± 0.81%, 0.28 ± 0.027 nM and 54.7 ± 2.63%.
The like results for `C[C@H]1[C@H]2Cc3ccc(O)cc3[C@]1(CCNC(=O)Nc1ccc(F)cc1)CCN2CC1CC1` [Compound 18, 1-(2-((2R,6R,11R)-3-(cyclopropyl-methyl)-8-hydroxy-11-methyl-2,3,4,5-tetrahydro-2,6-methanobenzo[d]azocin-6(1H)-yl)ethyl)-3-(4-fluorophenyl)urea] were, in that order, 0.31 ± 0.063 nM, 4.38 ± 0.35%, 0.12 nM and 22.4 ± 1.04%.
Consider `COc1ccc2c(c1)[C@]1(CCNCCc3ccc(S(N)(=O)=O)cc3)CCN(C)[C@H](C2)[C@@H]1C` [Compound 51, 4-(2-((2-((2R,6R,11R)-8-methoxy-3,11-dimethyl-2,3,4,5-tetrahydro-2,6-methanobenzo[d]azocin-6(1H)-yl)ethyl)-amino)ethyl)benzenesulfonamide], for which, at μ-opioid receptor [3], it took 6710 ± 257 nM to reach a half-maximal effect (EC50) and the Emax turned out to be 76.7 ± 3.71%. Moreover, at κ-opioid receptor, the Emax came to 96.3 ± 0.67% and the EC50 is 6280 ± 318 nM.
As for `COc1ccc2c(c1)[C@@]1(CCOCc3ccccc3)CCN(C)[C@@H](C2)[C@H]1C` [Compound 47, (2S,6R,11S)-6-(2-(benzyloxy)ethyl)-8-methoxy-3,11-dimethyl-1,2,3,4,5,6-hexahydro-2,6-methanobenzo[d]azocine], on μ-opioid receptor [3], the EC50 was 8990 ± 1630 nM and the Emax came out at 72.3 ± 3.84%. Further, at κ-opioid receptor, the Emax came out at 99.3 ± 0.67% and the EC50 amounted to 3750 ± 207 nM.

Broadly, the EC50 is the concentration that produces a half-maximal response. One may read the Emax as the maximal effect, on the per cent scale that the assay sets.
